Experimental findings from ChEMBL document CHEMBL4813953, “Kinetics-Driven Drug Design Strategy for Next-Generation Acetylcholinesterase Inhibitors to Clinical Candidate” (J Med Chem, 2021) are described below.

Active and inactive are the calls of the source.

A short description of series [1]: Cmax in human plasma at 1 mg, po. In kind it is ADME, cell-free. The arrangement: route oral, dose 1 mg.
Another series concerns Mus musculus. The series is described as follows: Cognitive enhancing effect in mouse model of scopolamine-induced memory impairment assessed as reduction in escape latency time at 0.5 to 2 mg/kg, IG QD for 3 days by channel water maze test. Format: functional, organism-based. Conditions: dose 0.5-2 mg/kg, time 3.0 day.
Series [2] can be described thus: Cardiotoxicity in Beagle dog assessed as effect on QT interval at 0.1 to 1 mg/kg. In kind it is toxicity, organism-based, Canis lupus familiaris. The note with it: in vivo, dose 0.1-1 mg/kg.
Series [3] is described as follows: Half life in Beagle dog at 0.25 mg/kg, po. Format: ADME, organism-based, Canis lupus familiaris. Conditions: in vivo.
Series [4] can be described thus: Half life in Sprague-Dawley rat brain at 10 mg/kg, po. In kind it is ADME, organism-based.
Series [5] can be described thus: Selectivity ratio of IC50 for human ERG to IC50 for rat cortex homogenate acetylcholinesterase.
The species named for a further series is Rattus norvegicus. The series is described as follows: Selectivity index, ratio of IC50 for rat serum BuChE using S-butyrylthiocholine iodide as substrate to IC50 for rat cortex homogenate acetylcholinesterase using acetylthiocholine iodide as substrate.
Series [6] in a line: AUC (0 to infinity) in Sprague-Dawley rat at 0.5 mg/kg, iv. In kind it is ADME, organism-based. The arrangement: time infinity, route intravenous, dose 0.5 mg/kg. The note with it: in vivo.
The nature of series [7]: Tmax in Sprague-Dawley rat at 0.5 mg/kg, po. In kind it is ADME, organism-based. The note with it: in vivo.
Series [8] is described as follows: Genotoxicity in Salmonella typhimurium TA1535 by Ames test. Format: toxicity. Conditions: salmonella enterica subsp. enterica serovar typhimurium. (In the Ames test, an excess of revertant colonies over the control signals mutagenicity.)
A short description of series [9]: Toxicity in Beagle dog assessed as effect on blood pressure at 0.1 to 1 mg/kg. Format: organism-based, Canis lupus familiaris. The note with it: in vivo, dose 0.1-1 mg/kg.
Series [10] can be described thus: Protein binding in human plasma. Conditions: read-out: PPB (converted). In kind it is ADME, cell-free.
Series [11] is described as follows: Half life in Sprague-Dawley rat plasma at 10 mg/kg, po. In kind it is ADME, organism-based.
A short description of series [12]: Cmax in Sprague-Dawley rat plasma at 10 mg/kg, po. Format: ADME, organism-based. Also noted: route oral, dose 10 mg/kg.
In the next series the target is Cytochrome P450 2C19 (Homo sapiens, UniProt P33261). The series is described as follows: Inhibition of CYP2C19 in human hepatocytes. In kind it is ADME, cell-based, Hepatocyte.
Cytochrome P450 2C19, sequence (P33261 whole entry): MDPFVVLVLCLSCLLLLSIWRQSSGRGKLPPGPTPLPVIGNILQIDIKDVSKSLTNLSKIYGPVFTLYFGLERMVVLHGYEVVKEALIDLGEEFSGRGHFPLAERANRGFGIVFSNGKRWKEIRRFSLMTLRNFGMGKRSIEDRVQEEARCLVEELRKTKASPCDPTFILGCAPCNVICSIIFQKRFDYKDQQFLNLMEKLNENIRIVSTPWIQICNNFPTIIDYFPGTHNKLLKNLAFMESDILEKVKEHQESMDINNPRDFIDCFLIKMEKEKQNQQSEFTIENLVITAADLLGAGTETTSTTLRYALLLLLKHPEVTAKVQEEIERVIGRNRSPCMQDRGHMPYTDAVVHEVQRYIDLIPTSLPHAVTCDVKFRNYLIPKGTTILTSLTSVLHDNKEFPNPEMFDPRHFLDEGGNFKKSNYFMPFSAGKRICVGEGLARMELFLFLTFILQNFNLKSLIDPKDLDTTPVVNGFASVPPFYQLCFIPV
The nature of series [13]: MRT (0 to infinity) in Sprague-Dawley rat at 0.5 mg/kg, iv. In kind it is ADME, organism-based. The note with it: in vivo.
Series [14] is described as follows: AUC(0 to t) in Sprague-Dawley rat brain at 10 mg/kg, po. Format: ADME, organism-based. The arrangement: dose 10 mg/kg.
Series [15] in a line: Clearance in Beagle dog at 0.25 mg/kg, iv. In kind it is ADME, organism-based, Canis lupus familiaris. Conditions: in vivo.
A further series concerns the target Cytochrome P450 2D6 (Homo sapiens, UniProt P10635). The series is described as follows: Inhibition of CYP2D6 in human hepatocytes. In kind it is ADME, cell-based, Hepatocyte.

Cytochrome P450 2D6, sequence (P10635 whole entry): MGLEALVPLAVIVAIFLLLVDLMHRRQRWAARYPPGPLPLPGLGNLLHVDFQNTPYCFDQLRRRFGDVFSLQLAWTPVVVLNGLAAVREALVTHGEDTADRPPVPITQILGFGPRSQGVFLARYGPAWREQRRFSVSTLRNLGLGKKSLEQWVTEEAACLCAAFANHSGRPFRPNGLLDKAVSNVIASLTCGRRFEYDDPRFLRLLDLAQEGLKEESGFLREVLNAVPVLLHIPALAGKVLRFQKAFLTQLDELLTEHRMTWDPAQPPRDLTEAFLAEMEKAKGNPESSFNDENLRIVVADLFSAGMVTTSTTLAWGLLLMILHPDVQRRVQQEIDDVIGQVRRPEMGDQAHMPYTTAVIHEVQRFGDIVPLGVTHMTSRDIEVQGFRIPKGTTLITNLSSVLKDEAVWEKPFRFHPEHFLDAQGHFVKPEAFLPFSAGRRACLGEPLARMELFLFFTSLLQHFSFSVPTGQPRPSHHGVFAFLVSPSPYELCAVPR

What is called Cmax is the highest concentration seen after dosing. In general, half-life refers to the time needed for the level to fall by half in the phase considered. The term AUC(0-inf) denotes the area under the concentration-time curve extrapolated to infinity. Usually Tmax stands for the time at which the peak concentration occurs. By IC50 is commonly meant the concentration that gives 50% inhibition. A high value points to weaker potency. Usually MRT inf stands for a mean duration of stay, worked out from the concentration-time curve. Usually AUC(0-t) stands for the area under the concentration-time curve up to a stated or last time point. Read a low AUC(0-t) as less exposure. One may read the clearance as the volume of plasma or blood freed of the substance per unit of time. A lower clearance goes with a low capacity for elimination. For the compound `COc1cc2c(cc1OC)C(=O)C(CC1(F)CCN(Cc3ccccc3F)CC1)C2` (centres undefined), the values for the Cmax in series [1] and in series [12] were 1.19 ng/mL and 215 ng/mL, respectively. The outcome with Mus musculus was Active. In addition, the Activity entry in series [2], in series [8] and in series [9] was “Non-Toxic” each time. Moreover, the half-life is 23.2 h in [3], 6.99 h in [4] and 5.57 h in series [11]. For the same compound, the Ratio IC50 in [5] was 10700; in the series filed under Rattus norvegicus it was 36900. Besides, the AUC(0-inf) in series [6] is 395 ng·h/mL. Moreover, in series [7], the Tmax is 0.63 h. Besides, in series [10], the fraction unbound is 0.022. Further, the IC50 at Cytochrome P450 2C19 and at Cytochrome P450 2D6 was over 30 µM in each case. Also, in series [13], the MRT inf worked out at 5.21 h. The same compound registered an AUC(0-t) in series [14] of 5840 ng·h/mL. This compound also registered a clearance in series [15] of 17.5 mL/min/kg.
